The nature of this data set: Aerodynamic particle size distribution by Andersen Cascade Impactor (ACI). It is filed as physicochemical. The conditions noted are these: flow rate 28.3 L/min, Samples I-V. As for the experimental part:
An Andersen Cascade Impactor (ACI) was used to determine the particle size distribution of Samples I-V. The test was conducted at a flow rate of 28.3 L/min. Deposition of the active substance on each ACI plate was determined by high performance liquid chromatography. The particle size was expressed in terms of mass median aerodynamic diameter (MMAD) and Geometric Standard Deviation (GSD).

The values that follow come from patent publication US20210290568A1, “INHALABLE FORMULATION OF A SOLUTION CONTAINING LEVALBUTEROL TARTRATE” (priority 2020, published 2021).

Molecules are shown by their SMILES.

`CC(C)(C)NC[C@H](O)c1ccc(O)c(CO)c1.O=C(O)C(O)C(O)C(=O)O` [Levalbuterol Tartrate, 4-[(1R)-2-(tert-butylamino)-1-hydroxyethyl]-2-(hydroxymethyl)phenol; (2R,3R)-2,3-dihydroxybutanedioic acid] returned a GSD of 1.7 and an MMAD of 4.4 μm.
